According to patent EP4603105A1, “PHARMACEUTICAL COMPOSITION CONTAINING CYCLIC COMPOUND HAVING SELECTIVE KRAS INHIBITORY EFFECT AGAINST HRAS AND NRAS” (CHUGAI SEIYAKU KABUSHIKI KAISHA, priority 2022, dated 2024):
*1 amine or outer side, *2 acyl side, *3 side chain or, on linkers, in order; H or OH if unused. Where a SMILES comes first, the peptide text is derived from it. Bridges are numbered along the chain shown (N, C = ends). [ ]: non-standard residue; d: D form. The star is where a group is joined. hPhe(3,5-F2-4-CF3) = N[C@@H](CCc1cc(F)c(C(F)(F)F)c(F)c1)C(=O)O; hPhe(3-Cl-4-CF3) = N[C@@H](CCc1ccc(C(F)(F)F)c(Cl)c1)C(=O)O; NPrPhe(4-CF3) = CCCN[C@@H](Cc1ccc(C(F)(F)F)cc1)C(=O)O; NEtAsp = CCN([C@@H](CC(=O)[*:3])C(=O)[*:2])[*:1]; NMeGly(cPent) = CN[C@H](C(=O)O)C1CCCC1; Pro(4,4-F2) = O=C(O)[C@@H]1CC(F)(F)CN1; αMeCha = C[C@](N)(CC1CCCCC1)C(=O)O; NMeD = CN[C@@H](CC(=O)O)C(=O)O; NMeL = CN[C@@H](CC(C)C)C(=O)O; Morpholide = C1CN(*)CCO1; Ac5c = NC1(C(=O)O)CCCC1; NEtG = CCNCC(=O)O; Sar = CNCC(=O)O

Legend:
[1] = biological target: GDP-bound NRAS wild-type protein (Homo sapiens, UniProt P01111); assay: Binding to NRAS by surface plasmon resonance (SPR), KD and KD ratio to KRAS
Sequence of GDP-bound NRAS wild-type protein (P01111 whole entry): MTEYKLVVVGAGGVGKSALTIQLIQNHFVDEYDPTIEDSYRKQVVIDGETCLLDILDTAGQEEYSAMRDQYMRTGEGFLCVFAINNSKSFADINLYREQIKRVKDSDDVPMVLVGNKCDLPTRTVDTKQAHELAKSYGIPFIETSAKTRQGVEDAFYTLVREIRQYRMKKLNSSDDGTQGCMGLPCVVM
In short: (§1)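 Biotinylated GDP-bound RAS was captured at about 100–300 RU. Running buffer: HBS pH 7.4, 10 mM MgCl2, 10 µM GDP, 1 mM DTT, 0.01% Tween 20, 4% DMSO.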

[2] = biological target: HRAS wild-type protein (Homo sapiens, UniProt P01112); assay: Binding to HRAS by surface plasmon resonance (SPR), KD and KD ratio to KRAS
Sequence of HRAS wild-type protein (P01112 whole entry): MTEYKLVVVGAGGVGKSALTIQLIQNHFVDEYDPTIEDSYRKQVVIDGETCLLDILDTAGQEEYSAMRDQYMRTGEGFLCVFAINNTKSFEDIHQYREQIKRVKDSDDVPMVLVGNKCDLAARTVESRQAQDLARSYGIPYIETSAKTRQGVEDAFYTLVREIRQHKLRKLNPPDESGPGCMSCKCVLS
In short: as §1

[3] = tested on: human lung cancer strain NCI-H441; assay type: cell-based
In short: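 Step one: dispense the test compound in serial DMSO dilutions. Step three: add the reagent and measure […].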

[4] = ratio of the KD value with respect to GDP-bound NRAS wild-type protein to the KD value with respect to KRAS
[5] = ratio of the KD value with respect to HRAS wild-type protein to the KD value with respect to KRAS
[6] = ratio of KD for GDP-bound NRAS wild-type protein to KD for KRAS
[7] = ratio of KD for HRAS wild-type protein to KD for KRAS
[8] = ratio of KD value for GDP-bound NRAS wild-type protein to KD value for KRAS (SPR)
[9] = ratio of KD value for HRAS wild-type protein to KD value for KRAS (SPR)

Row | Structure (SMILES) | NRAS /KRAS [1, 4] | HRAS /KRAS [2, 5] | IC50 [3] [µM] | NRAS /KRAS [1, 6] | HRAS /KRAS [2, 7] | NRAS /KRAS [1, 8] | HRAS /KRAS [2, 9]
1 | CCO[C@@H]1C[C@H]2C(=O)NC3(CC(C)(C)C3)C(=O)N(C)[C@@H](C(CC)CC)C(=O)N(C)[C@H](C(=O)N3CCCC3)CC(=O)N(C)[C@@H](COC)C(=O)N[C@@H]([C@@H](C)CC)C(=O)N(C)CC(=O)N(C)[C@H]3C/C=C\CCN(C3=O)[C@@H](Cc3ccc(C)cc3)C(=O)N(C)CC(=O)N[C@@H](CCc3ccc(C(F)(F)F)c(Cl)c3)C(=O)N2C1 [PP2144] | AA (a compound having 20 or more is denoted as AA) | A (a compound having 10 or more and less than 20 is denoted as A) | 0.029 |  |  |  | 
2 | CCCN1C(=O)CN(C)C(=O)CN(CC)C(=O)[C@H]([C@@H](C)CC)NC(=O)[C@H](CC(C)C)N(C)C(=O)C[C@@H](C(=O)N(C)C)N(C)C(=O)[C@H](C2CCCC2)N(C)C(=O)C2(CCCC2)NC(=O)[C@@H]2CC(F)(F)CN2C(=O)[C@H](CCc2ccc(C(F)(F)F)c(Cl)c2)NC(=O)CN(C)C(=O)[C@@H]1Cc1ccc(C(F)(F)F)cc1 [PP0425] ([NMeL]I[NEtG][Sar][NPrPhe(4-CF3)][Sar][hPhe(3-Cl-4-CF3)][Pro(4,4-F2)][Ac5c][NMeGly(cPent)][NMeD]-NMe2; lactam N-11) | B (a compound having 3 or more and less than 10 is denoted as B) | C (A compound having a KD ratio of 0.1 or more and less than 3 is denoted as C) | 0.0065 |  |  |  | 
3 | CCC[C@H]1C(=O)N[C@@H]([C@@H](C)CC)C(=O)N(C)CC(=O)N(C)[C@H]2C/C=C\CCN(C2=O)[C@@H](Cc2ccc(C(F)(F)F)cc2)C(=O)N(C)CC(=O)N[C@@H](CCc2ccc(C(F)(F)F)c(OC)c2)C(=O)N2C[C@H](OCC)C[C@H]2C(=O)NC2(CC(C)(C)C2)C(=O)N(C)[C@@H](CC2CC2)C(=O)N(C)[C@H](C(=O)N(C)C)CC(=O)N1C [PP2809] |  |  | 0.0766 | A (a compound having 10 or more and less than 20 is denoted as A) | A (a compound having 10 or more and less than 20 is denoted as A) |  | 
4 | CCCN1C(=O)CN(CC)C(=O)CNC(=O)[C@H]([C@@H](C)CC)NC(=O)[C@H](CC(C)C)N(C)C(=O)C[C@@H](C(=O)N2CCOCC2)N(C)C(=O)[C@H](C2CCCC2)N(C)C(=O)C2(CCCC2)NC(=O)[C@@H]2CCCN2C(=O)[C@H](CCc2ccc(C(F)(F)F)c(Cl)c2)NC(=O)CN(C)C(=O)[C@@H]1Cc1ccc(C(F)(F)F)cc1 [PP1968] ([NMeL]IG[NEtG][NPrPhe(4-CF3)][Sar][hPhe(3-Cl-4-CF3)]P[Ac5c][NMeGly(cPent)][NMeD]-Morpholide; lactam N-11) | C (A compound having a KD ratio of 0.1 or more and less than 3 is denoted as C) | C (A compound having a KD ratio of 0.1 or more and less than 3 is denoted as C) | 0.0135 |  |  |  | 
5 | CCC[C@H]1C(=O)N[C@@H]([C@@H](C)CC)C(=O)N(C)CC(=O)N(C)[C@H]2CCCCN(C2=O)[C@@H](Cc2ccc(C(F)(F)F)cc2)C(=O)N(C)CC(=O)N[C@@H](CCc2cc(F)c(C(F)(F)F)c(F)c2)C(=O)N2C[C@H](OCC)C[C@H]2C(=O)NC2(CCC2)C(=O)N(C)[C@@H](C2CCCC2)C(=O)N(C)[C@H](C(=O)N(C)C)CC(=O)N1C [PP0694] | C (A compound having a KD ratio of 0.1 or more and less than 3 is denoted as C) | C (A compound having a KD ratio of 0.1 or more and less than 3 is denoted as C) | 0.0035 |  |  |  | 
6 | CC[C@H](C)[C@@H]1NC(=O)[C@H](C)N(C)C(=O)C[C@@H](C(=O)N2CCOCC2)N(C)C(=O)[C@H](C2CCCC2)N(C)C(=O)C2(CCCC2)NC(=O)[C@@H]2CCCN2C(=O)[C@H](CCc2cc(F)c(C(F)(F)F)c(F)c2)NC(=O)CN(C)C(=O)[C@H](Cc2ccc(C(F)(F)F)cc2)N2CCCC[C@@H](C2=O)N(C)C(=O)CN(C)C1=O [PP0549] | C (A compound having a KD ratio of 0.1 or more and less than 3 is denoted as C) | B (a compound having 3 or more and less than 10 is denoted as B) | 0.013 |  |  |  | 
7 | C#CC[C@H]1C(=O)N[C@@H]([C@@H](C)CC)C(=O)N(C)CC(=O)N(C)[C@H]2C/C=C\CCN(C2=O)[C@@H](Cc2ccc(C(F)(F)F)cc2)C(=O)N(C)CC(=O)N[C@@H](CCc2cc(F)c(C(F)(F)F)c(F)c2)C(=O)N2C[C@H](OCC)C[C@H]2C(=O)NC2(CC(C)(C)C2)C(=O)N(C)[C@@H](C2CCCC2)C(=O)N(C)[C@H](C(=O)N(C)CC)CC(=O)N1C [PP2073] | A (a compound having 10 or more and less than 20 is denoted as A) | A (a compound having 10 or more and less than 20 is denoted as A) | 0.0035 |  |  |  | 
8 | CCC[C@H]1C(=O)N[C@@H](C2CCCCC2)C(=O)N(C)CC(=O)N(C)[C@H]2C/C=C\CCN(C2=O)[C@@H](Cc2ccc(C(F)(F)F)cc2)C(=O)N(C)CC(=O)N[C@@H](CCc2ccc(C(F)(F)F)c(Cl)c2)C(=O)N2C[C@H](OCC)C[C@H]2C(=O)NC2(CC(C)(C)C2)C(=O)N(C)[C@@H](CC(C)C)C(=O)N(C)[C@H](C(=O)N(C)C)CC(=O)N1C [PP3017] |  |  | 0.0463 | AA (a compound having 20 or more is denoted as AA) | A (a compound having 10 or more and less than 20 is denoted as A) |  | 
9 | CCCN1C(=O)CN(C)C(=O)CNC(=O)[C@H]([C@@H](C)CC)NC(=O)[C@H](CC(C)C)N(C)C(=O)C[C@@H](C(=O)N2CCOCC2)N(CC)C(=O)[C@H](C2CCCC2)N(C)C(=O)C2(CCCC2)NC(=O)[C@@H]2CCCN2C(=O)[C@H](CCc2ccc(C(F)(F)F)c(Cl)c2)NC(=O)CN(C)C(=O)[C@@H]1Cc1ccc(C(F)(F)F)cc1 [PP1970] ([NMeL]IG[Sar][NPrPhe(4-CF3)][Sar][hPhe(3-Cl-4-CF3)]P[Ac5c][NMeGly(cPent)][NEtAsp]-Morpholide; lactam N-11) | B (a compound having 3 or more and less than 10 is denoted as B) | B (a compound having 3 or more and less than 10 is denoted as B) | 0.0168 |  |  |  | 
10 | CCO[C@@H]1C[C@H]2C(=O)NC3(CC(C)(C)C3)C(=O)N(C)[C@@H](C3CCCC3)C(=O)N(C)[C@H](C(=O)N(C)C)CC(=O)N(C)[C@@H](CC(F)(F)F)C(=O)N[C@@H]([C@@H](C)CC)C(=O)N(C)CC(=O)N(C)[C@H]3C/C=C\CCN(C3=O)[C@@H](Cc3ccc(C(F)(F)F)cc3)C(=O)N(C)CC(=O)N[C@@H](CCc3ccc(C(F)(F)F)c(OC)c3)C(=O)N2C1 [PP1675] |  |  | 0.003 |  |  | A (a compound having 10 or more and less than 20 is denoted as A) | B (a compound having 3 or more and less than 10 is denoted as B)
11 | CCCN1CC(=O)N(C)[C@H]2C/C=C\CCN(C2=O)[C@@H](Cc2ccc(C(F)(F)F)cc2)C(=O)N(C)CC(=O)N[C@@H](CCc2cc(F)c(C(F)(F)F)c(F)c2)C(=O)N2C[C@H](OCC)C[C@H]2C(=O)NC2(CCC2)C(=O)N(C)[C@@H](C2CCCC2)C(=O)N(C)[C@H](C(=O)N(C)C)CC(=O)N(C)[C@@H](CC)C(=O)N[C@@H]([C@@H](C)CC)C1=O [PP1053] |  |  | 0.0678 | A (a compound having 10 or more and less than 20 is denoted as A) | A (a compound having 10 or more and less than 20 is denoted as A) |  | 
12 | C=CCN1CC(=O)N(C)[C@H]2C/C=C\CCN(C2=O)[C@@H](Cc2ccc(C)cc2)C(=O)N(C)CC(=O)N[C@@H](CCc2cc(F)c(C(F)(F)F)c(F)c2)C(=O)N2C[C@H](OCC)C[C@H]2C(=O)NC2(CC(C)(C)C2)C(=O)N(C)[C@@H](C2CCCC2)C(=O)N(C)[C@H](C(=O)N(C)C)CC(=O)N(C)[C@@H](CC(C)C)C(=O)N[C@@H]([C@@H](C)CC)C1=O [PP2050] | A (a compound having 10 or more and less than 20 is denoted as A) | A (a compound having 10 or more and less than 20 is denoted as A) | 0.0075 |  |  |  | 
13 | CCO[C@@H]1C[C@H]2C(=O)N(C)C3(CCC3)C(=O)N(C)[C@@H](C3CCCC3)C(=O)N(C)[C@H](C(=O)N(C)C)CC(=O)N(C)[C@@H](CC(C)C)C(=O)N[C@@H]([C@@H](C)CC)C(=O)N(C)CC(=O)N(C)[C@H]3C/C=C\CCN(C3=O)[C@@H](Cc3ccc(C)cc3)C(=O)N(C)CC(=O)N[C@@H](CCc3cc(F)c(C(F)(F)F)c(F)c3)C(=O)N2C1 [PP1790] |  |  | 0.0017 |  |  | A (a compound having 10 or more and less than 20 is denoted as A) | B (a compound having 3 or more and less than 10 is denoted as B)
14 | CCCN1C(=O)CN(C)C(=O)CN(C)C(=O)[C@H]([C@@H](C)CC)NC(=O)[C@H](CC(C)C)N(C)C(=O)C[C@@H](C(=O)N(C)C)N(C)C(=O)[C@H](C2CCCC2)N(C)C(=O)[C@](C)(CC2CCCCC2)NC(=O)[C@@H]2CCCN2C(=O)[C@H](CCc2cc(F)c(C(F)(F)F)c(F)c2)NC(=O)CN(C)C(=O)[C@@H]1Cc1ccc(C(F)(F)F)cc1 [PP0739] ([NMeL]I[Sar][Sar][NPrPhe(4-CF3)][Sar][hPhe(3,5-F2-4-CF3)]P[αMeCha][NMeGly(cPent)][NMeD]-NMe2; lactam N-11) | B (a compound having 3 or more and less than 10 is denoted as B) | C (A compound having a KD ratio of 0.1 or more and less than 3 is denoted as C) | 0.297 |  |  |  | 
